Test results reported in patent US20060040957A1, “BICYCLIC PYRIMIDINE MATRIX METALLOPROTEINASE INHIBITORS” (priority 2001, published 2006).
Counter-ions that a name gives are not always drawn. Like-named read-outs stand apart in the source and are kept apart here.

What was measured:
[1] = biological target: MMP-13CD (catalytic domain of collagenase 3) (Homo sapiens, UniProt P45452); experiment: Thiopeptolide substrate hydrolysis assay, MMP-13CD; format: biochemical; details: thiopeptolide substrate, HEPES pH 7.0, 22° C.
Text: (§1) Thiopeptolide substrates show virtually no decomposition or hydrolysis at or below neutral pH in the absence of a matrix metalloproteinase enzyme.

[2] = biological target: T1, MMP-7FL (full length matrilysin) (Homo sapiens, UniProt P09237); experiment: Thiopeptolide substrate hydrolysis assay, MMP-7FL; format: biochemical; details: HEPES pH 7.0, 22° C., read-out: IC50 (μM) Versus Certain MMPs: MMP-07 FL
T1 sequence (P09237 95-267): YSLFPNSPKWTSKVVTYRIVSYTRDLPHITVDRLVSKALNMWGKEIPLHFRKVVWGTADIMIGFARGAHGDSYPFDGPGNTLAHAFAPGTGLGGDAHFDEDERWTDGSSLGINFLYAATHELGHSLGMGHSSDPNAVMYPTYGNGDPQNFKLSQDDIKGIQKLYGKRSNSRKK
Text: (§2) The invention compounds of Formula I have been evaluated in standard assays for their ability to inhibit the catalytic activity of various MMP enzymes.
as §1
(§3) Several representative compounds have been evaluated for their ability to inhibit various matrix metalloproteinase enzymes.

[3] = biological target: T2, MMP-1FL (full length interstitial collagenase) (Homo sapiens, UniProt P03956); experiment: Thiopeptolide substrate hydrolysis assay, MMP-1FL; format: biochemical; details: HEPES pH 7.0, 22° C., read-out: IC50 (μM) Versus Certain MMPs: MMP-01 FL
T2 sequence (P03956 100-469): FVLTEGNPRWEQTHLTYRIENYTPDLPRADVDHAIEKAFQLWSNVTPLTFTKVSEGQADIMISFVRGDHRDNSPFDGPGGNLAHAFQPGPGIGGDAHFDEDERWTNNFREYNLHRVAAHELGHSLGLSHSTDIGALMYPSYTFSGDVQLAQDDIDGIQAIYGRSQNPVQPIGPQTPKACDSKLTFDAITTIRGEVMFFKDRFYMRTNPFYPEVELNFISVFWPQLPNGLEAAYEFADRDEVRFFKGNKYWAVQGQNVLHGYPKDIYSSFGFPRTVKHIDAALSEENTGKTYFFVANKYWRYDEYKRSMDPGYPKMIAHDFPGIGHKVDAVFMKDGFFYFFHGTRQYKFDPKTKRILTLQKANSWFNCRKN
Text: as §2, §1, §3

[4] = biological target: MMP-14CD (catalytic domain of MMP-14) (Homo sapiens, UniProt P50281); experiment: Thiopeptolide substrate hydrolysis assay, MMP-14CD; format: biochemical; details: HEPES pH 7.0, 22° C., read-out: IC50 (μM) Versus Certain MMPs: MMP-14 CD
Text: as §2, §1, §3

[5] = biological target: MMP-3CD (catalytic domain of stromelysin-1) (Homo sapiens, UniProt P08254); experiment: Thiopeptolide substrate hydrolysis assay, MMP-3CD; format: biochemical; details: MES buffer pH 6.0, read-out: IC50 (μM) Versus Certain MMPs: MMP-03 CD
Procedure: as §2, §1, §3
It should be appreciated that the assay buffer used with MMP-3CD was 50 mM N-morpholinoethane sulfonate (−MES=) at pH 6.0 rather than the HEPES buffer at pH 7.0 described above.

[6] = biological target: MMP-9FL (full length Gelatinase B) (Homo sapiens, UniProt P14780); experiment: Thiopeptolide substrate hydrolysis assay, MMP-9FL; format: biochemical; details: HEPES pH 7.0, 22° C., read-out: IC50 (μM) Versus Certain MMPs: MMP-09 FL
Text: as §2, §1, §3

[7] = biological target: T3, MMP-2FL (full length Gelatinase A) (Homo sapiens, UniProt P08253); experiment: Thiopeptolide substrate hydrolysis assay, MMP-2FL; format: biochemical; details: HEPES pH 7.0, 22° C., read-out: IC50 (μM) Versus Certain MMPs: MMP-02 FL
T3 sequence (P08253 110-660): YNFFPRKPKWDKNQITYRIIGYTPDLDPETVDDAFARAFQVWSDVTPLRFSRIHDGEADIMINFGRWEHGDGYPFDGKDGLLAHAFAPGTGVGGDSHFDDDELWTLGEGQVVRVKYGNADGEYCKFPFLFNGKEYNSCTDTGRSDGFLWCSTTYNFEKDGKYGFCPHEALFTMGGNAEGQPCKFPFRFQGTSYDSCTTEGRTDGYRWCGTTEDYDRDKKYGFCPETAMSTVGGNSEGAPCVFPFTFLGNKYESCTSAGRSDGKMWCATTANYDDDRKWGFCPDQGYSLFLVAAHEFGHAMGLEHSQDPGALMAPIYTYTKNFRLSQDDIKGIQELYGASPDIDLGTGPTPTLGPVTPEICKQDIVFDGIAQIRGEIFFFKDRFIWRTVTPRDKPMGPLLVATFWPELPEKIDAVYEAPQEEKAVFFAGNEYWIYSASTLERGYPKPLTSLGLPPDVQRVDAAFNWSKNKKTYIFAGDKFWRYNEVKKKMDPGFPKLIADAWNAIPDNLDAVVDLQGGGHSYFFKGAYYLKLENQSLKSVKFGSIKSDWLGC
Text: as §2, §1, §3

[8] = read-out: IC50 (μM) Versus Certain MMPs: MMP-13 CD
[9] = IC50 (μM) Versus Certain MMPs: MMP-13 CD

Chain of MMP-3CD (catalytic domain of stromelysin-1) (P08254 100-272 limits assumed): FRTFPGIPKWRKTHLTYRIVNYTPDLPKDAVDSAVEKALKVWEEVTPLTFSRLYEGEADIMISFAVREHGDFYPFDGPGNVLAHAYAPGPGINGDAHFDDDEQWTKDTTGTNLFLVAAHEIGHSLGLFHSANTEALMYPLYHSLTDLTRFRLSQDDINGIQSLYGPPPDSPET
Chain of MMP-9FL (full length Gelatinase B) (P14780 94-707, species assumed): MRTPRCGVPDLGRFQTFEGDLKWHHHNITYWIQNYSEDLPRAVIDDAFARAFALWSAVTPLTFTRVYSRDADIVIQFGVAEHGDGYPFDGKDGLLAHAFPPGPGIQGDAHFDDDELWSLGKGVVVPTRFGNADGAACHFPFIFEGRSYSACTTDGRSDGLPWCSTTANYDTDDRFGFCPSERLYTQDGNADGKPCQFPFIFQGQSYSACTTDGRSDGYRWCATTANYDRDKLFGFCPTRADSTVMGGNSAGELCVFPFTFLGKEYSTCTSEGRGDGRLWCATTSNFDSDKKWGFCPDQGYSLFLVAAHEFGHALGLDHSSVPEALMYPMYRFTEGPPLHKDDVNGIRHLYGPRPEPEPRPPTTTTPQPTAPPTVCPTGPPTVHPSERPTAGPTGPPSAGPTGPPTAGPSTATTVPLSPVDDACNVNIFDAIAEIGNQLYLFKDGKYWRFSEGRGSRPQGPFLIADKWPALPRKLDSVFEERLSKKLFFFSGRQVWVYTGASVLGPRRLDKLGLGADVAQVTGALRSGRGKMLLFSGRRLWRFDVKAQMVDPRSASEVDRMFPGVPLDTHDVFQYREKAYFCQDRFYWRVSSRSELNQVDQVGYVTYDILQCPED

| SMILES | IC50 [1, 8] | melting point | IC50 [2] | IC50 [3] | IC50 [4] | IC50 [5] | IC50 [6] | IC50 [7] | IC50 [1, 9] |
| --- | --- | --- | --- | --- | --- | --- | --- | --- | --- |
| O=c1cc2sccn2c(=O)n1Cc1ccc(Cl)cc1 [6-(4-Chlorobenzyl)-thiazolo[3,2-c]pyrimidine-5,7-dione] | > 100 µM | 152 to 153.5 °C |  |  |  |  |  |  |  |
| O=C(OCc1ccccc1)c1cn2c(=O)n(Cc3ccccc3)c(=O)cc2s1 [Example 1, 6-Benzyl-5,7-dioxo-6,7-dihydro-5H-thiazolo[3,2-c]pyrimidine-2-carboxylic acid benzyl ester] |  |  | 96 µM | > 100 µM | > 30 µM | 23 µM |  |  |  |
| Cc1c(=O)n(Cc2ccccc2)c(=O)n2cc(C(=O)OCc3ccccc3)sc12 [Example 2, 6-Benzyl-8-methyl-5,7-dioxo-6,7-dihydro-5H-thiazolo[3,2-c]pyrimidine-2-carboxylic acid benzyl ester] |  |  |  | > 100 µM |  |  |  |  |  |
| O=C(OCc1ccncc1)c1cn2c(=O)n(Cc3ccccc3)c(=O)cc2s1 [Example 3, 6-Benzyl-5,7-dioxo-6,7-dihydro-5H-thiazolo[3,2-c]pyrimidine-2-carboxylic acid pyridin-4-ylmethyl ester hydrochloride] |  |  | > 100 µM | > 100 µM | > 100 µM | 11 µM | > 100 µM | > 100 µM |  |
| O=C(NCc1ccccc1)c1cn2c(=O)n(Cc3ccc(Cl)c(Cl)c3)c(=O)cc2s1 [Example 12, 6-(3,4-Dichlorobenzyl)-5,7-dioxo-6,7-dihydro-5H-thiazolo[3,2-c]pyrimidine-2-carboxylic acid benzylamide] | 0.293 µM | 216 to 217 °C | 20 µM |  | > 30 µM |  | > 30 µM | > 100 µM |  |
| O=C(OCc1ccncc1)C1Cn2c(cc(=O)n(Cc3ccccc3)c2=O)S1 (stereo not drawn) [Example 21, 6-Benzyl-5,7-dioxo-2,3,6,7-tetrahydro-5H-thiazolo[3,2-c]pyrimidine-2-carboxylic acid pyridin-4-ylmethyl ester hydrochloride] |  |  | > 100 µM | > 100 µM | > 100 µM | > 100 µM | > 100 µM | > 100 µM |  |
| Cc1c(=O)n(Cc2ccccc2)c(=O)n2cc(C(=O)NCc3ccc4[nH]ccc4c3)sc12 [Example 34, 6-Benzyl-8-methyl-5,7-dioxo-6,7-dihydro-5H-thiazolo[3,2-c]pyrimidine-2-carboxylic acid(1H-indol-5-ylmethyl)-amide] |  | 189 to 191 °C |  |  |  |  |  |  | 23 µM |
| COc1cc(CNC(=O)c2cn3c(=O)n(Cc4ccccc4)c(=O)c(C)c3s2)ccn1 [Example 37a, hydrochloride] |  |  | 26 µM |  |  | 20.5 µM |  |  | 0.0208 µM |
| Cc1c(=O)n(Cc2ccccc2)c(=O)n2cc(C(=O)NCc3ccc4nsnc4c3)sc12 [Example 42, 6-Benzyl-8-methyl-5,7-dioxo-6,7-dihydro-5H-thiazolo[3,2-c]pyrimidine-2-carboxylic acid(2,1,3-benzothiadiazol-5-ylmethyl)-amide] |  |  | > 30 µM |  | > 100 µM | 10 µM | > 30 µM | > 30 µM |  |
| Cc1c(=O)[nH]c(=O)n2ccsc12 [Example 53, 8-Methyl-thiazolo[3,2-c]pyrimidine-5,7-dione] | > 100 µM | > 230 °C |  |  |  |  |  |  |  |
| Cc1c(=O)n(Cc2ccc(C(=O)O)cc2)c(=O)n2cc(C(=O)NCc3ccncc3)sc12 [Example 62, 4-{8-Methyl-5,7-dioxo-2-[(pyridin-4-ylmethyl)-carbamoyl]-7H-thiazolo[3,2-c]pyrimidin-6-ylmethyl}-benzoic acid trifluoro-acetate] |  |  |  | > 100 µM |  |  |  |  |  |
| COC(=O)c1ccc(Cn2c(=O)c(C)c3sc(C(=O)NCc4ccc(F)cc4)cn3c2=O)cc1OC.Cl [Example 69, 4-[2-(4-Fluoro-benzylcarbamoyl)-8-methyl-5,7-dioxo-7H-thiazolo[3,2-c]pyrimidin-6-ylmethyl]-2-methoxy-benzoic acid methyl ester] |  | 191 to 193 °C | > 30 µM |  | > 30 µM | 10 µM | > 30 µM | > 30 µM |  |
| COC(=O)c1nc(Cn2c(=O)c(C)c3sc(C(=O)NCc4ccc(F)cc4)cn3c2=O)ncc1OC [Example 78, 2-[2-(4-Fluoro-benzylcarbamoyl)-8-methyl-5,7-dioxo-7H-thiazolo[3,2-c]pyrimidin-6-ylmethyl]-5-methoxy-pyrimidine-4-carboxylic acid methyl ester] |  |  | > 30 µM | > 30 µM | > 30 µM | > 30 µM | > 30 µM | > 30 µM |  |
| Cc1c(=O)n(Cc2ccc(S(C)(=O)=O)cc2)c(=O)n2cc(C(=O)NCc3ccncc3)sc12 [Example 81, 6-(4-Methanesulfonyl-benzyl)-8-methyl-5,7-dioxo-6,7-dihydro-5H-thiazolo[3,2-c]pyrimidine-2-carboxylic acid(pyridin-4-ylmethyl)-amide hydrochloride] |  |  |  | > 100 µM |  |  |  |  |  |
| COC(=O)c1ccc(Cn2c(=O)c(C)c3sc(C(=O)NCc4ccc(OC)cc4)cn3c2=O)cc1 [Example 103, 4-[2-(4-Methoxy-benzylcarbamoyl)-8-methyl-5,7-dioxo-7H-thiazolo[3,2-c]pyrimidin-6-ylmethyl]-benzoic acid methyl ester] | 0.0106 µM | 163 to 165 °C | > 100 µM |  | > 100 µM |  | > 100 µM | 65 µM |  |
| COC(=O)c1ccc(Cn2c(=O)c(C)c3sc(C(=O)NCc4cccc(F)c4)cn3c2=O)cc1 [Example 105, 4-[2-(3-Fluoro-benzylcarbamoyl)-8-methyl-5,7-dioxo-7H-thiazolo[3,2-c]pyrimidin-6-ylmethyl]-benzoic acid methyl ester] |  | 209 to 211 °C | 27 µM |  | > 30 µM |  | > 30 µM | > 30 µM |  |
| COC(=O)c1ccc(Cn2c(=O)c(C)c3sc(C(=O)NCc4ccc(F)cc4)cn3c2=O)cc1 [Example 106, 4-[2-(4-Fluoro-benzylcarbamoyl)-8-methyl-5,7-dioxo-7H-thiazolo[3,2-c]pyrimidin-6-ylmethyl]-benzoic acid methyl ester] |  | > 215 °C | > 30 µM |  | > 100 µM |  | > 100 µM | > 30 µM |  |
| Cc1c(=O)n(Cc2ccc(C#N)cc2)c(=O)n2cc(C(=O)NCc3ccc(F)cc3)sc12 [Example 107, 6-(4-Cyano-benzyl)-8-methyl-5,7-dioxo-6,7-dihydro-5H-thiazolo[3,2-c]pyrimidine-2-carboxylic acid 4-fluoro-benzylamide] |  | > 220 °C | > 30 µM |  | > 30 µM |  | > 30 µM | > 30 µM |  |
